Assay results reported in patent publication US3998811A, “Optically active 1,4-benzodiazepines and process for the preparation thereof” (CRC Compagnia di Recerca Chimica S.A., priority 1971, dated 1976).

Key:
mice [1] = assay: Anticonvulsant effect against pentylene tetrazole shock, mice; assay type: in vivo; details: relative to chlordiazepoxide = 1.00, larger value = less effective
Procedure: (§1) The pharmacalogical activity of the novel compounds of this invention was evaluated by standard methods such as the anticonvulsant effect against pentylene tetrazole shock and maximal and minimal electroshock, muscle relaxing ability, the fighting test, and hypnotic effect. These standard test are described in detail in the literature, for example, in L. O. Randall, C. L. Schenkel, R. F. Banziger, Curr. Ther. Res., Clin. Exp., 590 (1965), and M. I. Gluckman, Curr. Ther. Res., Clin. Exp., 7,721 (1965).
(§2) This Example illustrates the pharmacological effectiveness of the compounds of this invention. A number of the compounds of this invention were tested for their pharmacological effect on the CNS by the procedures described above. Also tested were the corresponding racemic mixtures and three commercial tranquillizers:
(§3) The results of the tests are shown in Table IV wherein the relative potencies compared with that of chlordiazepoxide which is assigned an activity of 1.00. […] It can also be seen that the pharmaceutically active compounds of this invention compare favorably with some commercially useful tranquillizers and even surpass them in some respects.

mice [2] = assay: Fighting test, mice; assay type: in vivo; details: relative to chlordiazepoxide = 1.00, larger value = less effective
Procedure: as §1, §2, §3

mice [3] = assay: Muscle relaxation (muscle relaxing ability), mice; assay type: in vivo; details: relative to chlordiazepoxide = 1.00, larger value = less effective
Procedure: as §1, §2, §3

mice [4] = assay: Anticonvulsant effect against minimal electroshock, mice; assay type: in vivo; details: relative to chlordiazepoxide = 1.00, larger value = less effective
Procedure: as §1, §2, §3

mice [5] = assay: Anticonvulsant effect against maximal electroshock, mice; assay type: in vivo; details: relative to chlordiazepoxide = 1.00, larger value = less effective
Procedure: as §1, §2, §3

mice [6] = assay: Hypnotic effect, mice; assay type: in vivo; details: relative to chlordiazepoxide = 1.00, larger value = less effective
Procedure: as §1, §2, §3

LD 50 P.O., mice = details: mouse, in vivo, po
[7] = S- form; cited from earlier work
experimental animals = details: R- form; even at low dosages; cited from earlier work

SMILES | Relative potency, anticonvulsant effect, pentylene tetrazole (mice [1]) | Relative potency, fighting test (mice [2]) | Relative potency, muscle relaxation (mice [3]) | Relative potency, anticonvulsant effect, minimal electro shock (mice [4]) | Relative potency, anticonvulsant effect, maximal electro shock (mice [5]) | Relative potency, hypnotic effect (mice [6]) | LD50 (LD 50 P.O., mice) | known pharmacological action [7] | known adverse effect in experimental animals (experimental animals)
CC(O)C1N=C(c2ccccc2)c2cc(Cl)ccc2NC1=O (racemic) [24 (Rac.)] | 105.60 | 16.30 | 5.42 | 3.27 | 12.60 | 3.20 | – | – | –
O=C1Nc2ccc(Cl)cc2C(c2ccccc2)=NC1O (stereo not drawn) [Oxazepam, 7-chloro-1,3-dihydro-3-hydroxy-5-phenyl-2H-1,4-benzodiazepine-2-one] | – | – | 0.62 | – | – | – | 3700 mg/kg | – | –
CN1C(=O)C(OCC(O)CO)N=C(c2ccccc2)c2cc(Cl)ccc21 [31 (S)] | 10.30 | 1.0 | 0.80 | – | 0.38 | 0.42 | 6000 mg/kg | – | –
O=C1Nc2ccc(Cl)cc2C(c2ccccc2)=NC1Cc1ccccc1 (racemic) [21 (Rac.)] | 40.50 | 45.8 | 40.70 | 20.60 | 10.30 | 10.70 | – | – | –
O=C1Nc2ccc(Cl)cc2C(c2ccccc2)=N[C@H]1Cc1ccccc1 [21 (S)] | 5.30 | 4.50 | 4.10 | 2.30 | 4.82 | 2.10 | 1600 mg/kg | – | –
CC(C)C1N=C(c2ccccc2)c2cc(Cl)ccc2NC1=O (racemic) [25 (Rac.)] | 20.4 | 9.30 | 8.60 | 4.70 | 20.30 | 4.20 | – | – | –
O=C1Nc2ccc(Cl)cc2C(c2ccccc2)=N[C@H]1Cc1c[nH]c2ccccc12 [23 (S)] | 3.20 | 7.10 | 6.20 | 1.70 | 4.10 | 0.80 | 2300 mg/kg | – | –
CC[C@@H](CO)NCCN[C@@H](CC)CO [S- form of Ethambutole, Ethambutole] | – | – | – | – | – | – | – | anti-tuberculous agent | –
CC(C)[C@@H]1N=C(c2ccccc2)c2cc(Cl)ccc2NC1=O [25 (S)] | 1.80 | 1.40 | 1.15 | 0.30 | 1.75 | 0.80 | 1850 mg/kg | – | –
O=C1Nc2ccc(Cl)cc2C(c2ccccc2)=NC1Cc1ccc(O)cc1 (racemic) [22 (Rac.)] | 75.6 | 56.30 | 46.20 | 16.70 | 65.40 | 18.60 | – | – | –
CN1CCN=C(c2ccccc2)c2cc(Cl)ccc21 [Medazepam, 7-chloro-5-phenyl-1-methyl-1,2-dihydro-3H-1,4-benzodiazepine] | 6.2 | 1.0 | 1.3 | 0.32 | 1.03 | 0.30 | 1420 mg/kg | – | –
C[C@@H]1N=C(c2ccccc2)c2cc(Cl)ccc2N(C)C1=O [26 (S)] | 5.80 | 1.00 | 0.70 | 0.10 | 0.90 | 0.80 | 2600 mg/kg | – | –
CN1C(=O)C(OCC(O)CO)N=C(c2ccccc2)c2cc(Cl)ccc21 (racemic) [31 (Rac.)] | 105.4 | 8.74 | 9.60 | 2.30 | 4.72 | 2.30 | – | – | –
CC[C@H](CO)NCCN[C@H](CC)CO [R- form, Ethambutole] | – | – | – | – | – | – | – | – | causes blindness in experimental animals, even at low dosages
O=C1Nc2ccc(Cl)cc2C(c2ccccc2)=NC1Cc1c[nH]c2ccccc12 (racemic) [23 (Rac.)] | 30.60 | 80.30 | 60.50 | 14.60 | 38.70 | 8.30 | – | – | –
O=C1Nc2ccc(Cl)cc2C(c2ccccc2)=N[C@H]1Cc1ccc(O)cc1 [22 (S)] | 7.3 | 5.70 | 4.30 | 1.42 | 6.30 | 4.20 | 1850 mg/kg | – | –
CC1N=C(c2ccccc2)c2cc(Cl)ccc2N(C)C1=O (racemic) [26 (Rac.)] | 47.30 | 8.94 | 6.54 | 2.10 | 10.20 | 2.70 | – | – | –
CC1N=C(c2ccccc2)c2cc(Cl)ccc2NC1=O (racemic) [20 (Rac.)] | 30.40 | 10.4 | 9.60 | 5.00 | 8.20 | 2.30 | – | – | –
C[C@@H](O)[C@@H]1N=C(c2ccccc2)c2cc(Cl)ccc2NC1=O [24 (S)] | 10.30 | 1.70 | 0.62 | 0.45 | 1.30 | 0.51 | 6000 mg/kg | – | –
C[C@@H]1N=C(c2ccccc2)c2cc(Cl)ccc2NC1=O [20 (S)] | 4.1 | 1.0 | 1.0 | 0.20 | 1.32 | 0.4 | 2300 mg/kg | – | –
